Measured values from ChEMBL document CHEMBL1137057 (Bioorg Med Chem Lett, 2004).

target: T1, Neuronal acetylcholine receptor; alpha4/beta2 (Rattus norvegicus, UniProt P09483+P12390); experiment: Inhibition of [3H]nicotine binding to Nicotinic acetylcholine receptor alpha4-beta2 of rat cortical membranes; format: cell membranes, Membrane
T1 sequence (P09483 whole entry): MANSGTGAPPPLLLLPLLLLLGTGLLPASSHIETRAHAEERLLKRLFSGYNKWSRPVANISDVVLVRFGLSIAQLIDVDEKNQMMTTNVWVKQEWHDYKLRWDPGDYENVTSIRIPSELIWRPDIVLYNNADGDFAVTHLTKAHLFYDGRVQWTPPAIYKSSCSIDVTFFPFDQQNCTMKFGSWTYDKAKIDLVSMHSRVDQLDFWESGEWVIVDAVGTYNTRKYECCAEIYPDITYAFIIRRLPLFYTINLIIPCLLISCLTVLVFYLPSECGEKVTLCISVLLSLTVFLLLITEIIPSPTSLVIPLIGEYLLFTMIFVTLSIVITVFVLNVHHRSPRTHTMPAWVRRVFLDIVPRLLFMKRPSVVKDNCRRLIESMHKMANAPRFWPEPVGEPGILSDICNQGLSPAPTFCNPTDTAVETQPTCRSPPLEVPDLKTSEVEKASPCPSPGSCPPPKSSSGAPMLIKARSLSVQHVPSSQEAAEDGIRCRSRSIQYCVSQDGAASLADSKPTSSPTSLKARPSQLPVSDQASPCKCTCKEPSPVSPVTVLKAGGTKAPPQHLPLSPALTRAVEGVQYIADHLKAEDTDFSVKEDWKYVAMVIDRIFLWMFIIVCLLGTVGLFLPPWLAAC
T1 sequence (P12390 whole entry): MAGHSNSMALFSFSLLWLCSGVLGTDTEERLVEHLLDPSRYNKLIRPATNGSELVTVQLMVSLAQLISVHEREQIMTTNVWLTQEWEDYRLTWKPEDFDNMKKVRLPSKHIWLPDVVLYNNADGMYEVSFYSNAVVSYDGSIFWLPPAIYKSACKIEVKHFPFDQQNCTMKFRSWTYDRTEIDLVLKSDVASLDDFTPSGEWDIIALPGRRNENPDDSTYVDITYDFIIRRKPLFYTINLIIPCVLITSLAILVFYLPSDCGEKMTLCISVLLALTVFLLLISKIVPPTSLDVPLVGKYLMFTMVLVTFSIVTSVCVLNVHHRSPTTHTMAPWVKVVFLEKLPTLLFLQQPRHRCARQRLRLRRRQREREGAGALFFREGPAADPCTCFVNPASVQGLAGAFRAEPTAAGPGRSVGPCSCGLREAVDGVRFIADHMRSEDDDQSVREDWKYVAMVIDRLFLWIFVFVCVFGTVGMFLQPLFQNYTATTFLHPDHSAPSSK

SMILES | Ki [nM]
Clc1ccc(C2CC3CNC2C3)cn1 (stereo not given) | > 38
Clc1ccc([C@@H]2CC3CC2CN3)cn1 (stereo not given in full) | 0.05
Clc1ccc([C@@H]2CC3CNC2C3)cn1 (stereo not given in full) | 0.04
Clc1ccc(C2CC3CC2CN3)cn1 (stereo not given) | > 38
Clc1ccc(C2CC3CCCCC2N3)cn1 (single isomer, unassigned; (-)) | 0.35
Clc1ccc(C2CC3CCCCC2N3)cn1 (stereo in doubt; 16 (+)) | 0.13
Clc1ccc(C2CC3CCCCC2N3)cn1 (stereo in doubt; 17) | 1.25

target: T1, Neuronal acetylcholine receptor; alpha4/beta2; experiment: Inhibition of [3H]cytisine binding to Nicotinic acetylcholine receptor alpha4-beta2 of rat cortical membranes; format: cell membranes, Membrane

SMILES | Ki [nM]
Clc1ccc(C2CC3CNC32)cn1 (stereo not given) | 3.9
Clc1ccc(C2CC3CNC2C3)cn1 (stereo not given) | 6.6
Clc1ccc(C2CC3NCC32)cn1 (stereo not given) | 5
Clc1ccc([C@@H]2CC3CNC2C3)cn1 (stereo not given in full) | 0.03
Clc1ccc(C2CC3CCC2NC3)cn1 (stereo not given) | 0.47
Clc1ccc(C2CC3CC2CN3)cn1 (stereo not given) | 30

target: Neuronal acetylcholine receptor subunit alpha-7 (Rattus norvegicus, UniProt Q05941); experiment: Inhibition of [3H]-BTX binding to Nicotinic acetylcholine receptor alpha-7 of rat hippocampal membranes; format: cell membranes, Membrane
Sequence (Q05941 whole entry): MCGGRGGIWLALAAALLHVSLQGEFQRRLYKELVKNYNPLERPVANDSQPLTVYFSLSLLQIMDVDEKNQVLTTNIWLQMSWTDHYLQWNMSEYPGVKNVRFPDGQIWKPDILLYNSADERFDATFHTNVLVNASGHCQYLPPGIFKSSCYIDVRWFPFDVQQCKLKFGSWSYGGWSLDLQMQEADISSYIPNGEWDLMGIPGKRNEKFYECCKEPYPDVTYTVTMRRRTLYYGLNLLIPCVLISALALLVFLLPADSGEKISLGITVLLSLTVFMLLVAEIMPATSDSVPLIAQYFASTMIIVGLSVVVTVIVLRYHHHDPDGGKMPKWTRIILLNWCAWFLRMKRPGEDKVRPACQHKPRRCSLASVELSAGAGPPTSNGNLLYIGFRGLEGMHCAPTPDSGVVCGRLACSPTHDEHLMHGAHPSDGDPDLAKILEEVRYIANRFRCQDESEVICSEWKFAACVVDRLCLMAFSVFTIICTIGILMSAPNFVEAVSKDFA

SMILES | Ki [nM]
Clc1ccc(C2CC3CNC2C3)cn1 (stereo not given) | 1600
Clc1ccc([C@@H]2CC3CC2CN3)cn1 (stereo not given in full) | 6.3
Clc1ccc([C@@H]2CC3CNC2C3)cn1 (stereo not given in full) | 3.9
Clc1ccc(C2CC3CC2CN3)cn1 (stereo not given) | 3300

target: T1, Neuronal acetylcholine receptor; alpha4/beta2; experiment: Inhibition of [3H]epibatidine binding to Nicotinic acetylcholine receptor alpha4-beta2 of rat cortical membranes; format: cell membranes, Membrane

SMILES | Ki [nM]
Clc1ccc(C2CCC3CCC2N3)cn1 (stereo not given) | 1.6

species on record: Mus musculus; experiment: Effective concentration in antinociception activity in mouse tail flick test; format: functional, organism-based

SMILES | EC50 [mg/kg]
Clc1ccc(C2CC3CCC2NC3)cn1 (stereo not given) | 0.04
Clc1ccc(C2CC3CCC2N3)cn1 (stereo not given) [EPIBATIDINE] | 0.01
